Where “and” joins values, the source holds several entries; their conditions need not be identical. Equal values may be shown once. Values belong to the sequence of their own block, whether it stands above or below them.
Biological target: T1, MAL^TIR (Homo sapiens, UniProt P58753)
T1 construct: MAL (residues 79–221); 6xHis; made in house; host or cells: E. coli BL21 (DE3)
Experiment: T‐Surf phage library (P8 and P3) selection against MAL^TIR, four rounds, NGS read counts
Type: binding
Details: for P3_MAL Rank (after) / P3_MAL Rank (before): P3 library; for P8_MAL Rank (after) / P8_MAL Rank (before): P8 library; for Population: 4th round of selection against MAL TIR, share of NGS reads
Procedure, shortened: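 Four panning rounds on TIR domain adsorbed at 5 µg mL^−1; binding 1 h at 20–22 °C, elution with 100 mM HCl. Output: NGS read counts of round‐4 pools versus naïve library.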

[1] = selection against MAL, rank by count after grouping
[2] = selection against MAL, rank by count before grouping
[3] = P3_MAL: rank by count after grouping
[4] = P3_MAL: rank by count before grouping
[5] = selection against MAL, rank after grouping
[6] = selection against MAL, rank before grouping
[7] = P8_MAL: rank by count after grouping
[8] = P8_MAL: rank by count before grouping
[9] = P8_MAL pool: P8 T-Surf phage library
[10] = selection against MAL TIR, rank by count after grouping
[11] = selection against MAL TIR, rank by count before grouping
[12] = 4R selection against MAL, rank after grouping
[13] = 4R selection against MAL, rank before grouping
[14] = P3_MAL pool: P3 T-Surf phage library

T1 sequence (P58753 79-221): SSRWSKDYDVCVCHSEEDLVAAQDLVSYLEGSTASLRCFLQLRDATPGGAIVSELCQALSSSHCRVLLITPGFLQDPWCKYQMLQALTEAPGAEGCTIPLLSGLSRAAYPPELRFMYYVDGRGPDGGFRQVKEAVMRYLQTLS

P3_MAL Rank (after) [1]: 685
P3_MAL Rank (before) [2]: 3125
Sequence: SSFRVGLCRLMALIQQ

Rank (after) [3]: 148
Rank (before) [4]: 2470
Sequence: RLLKWKEALQQVHSWV

P8_MAL Rank (after) [5]: 544
P8_MAL Rank (before) [6]: 1474
Sequence: YFLHFLLFSLPENECI

Rank (after) [7]: 421
Rank (before) [8]: 2752
Sequence: KLIQGGCLYRLLKIEQ

Rank (after) [7]: 405
Rank (before) [8]: 2222
Sequence: RNFVAYLLQALANKSI

Population [9]: 0.00371% and 0.0034%
Sequence: LFFCESLKQLLRSDGR

Rank (after) [7]: 123
Rank (before) [8]: 1781
Sequence: AFCWAQLKSVLGNPTR

P3_MAL Rank (after) [10]: 256
P3_MAL Rank (before) [11]: 2378
Sequence: RGFLSHLRHHLQEQDH

P3_MAL Rank (after) [10]: 240
P3_MAL Rank (before) [11]: 2701
Sequence: PNLRTKVLAYLNRTKT

P8_MAL Rank (after) [10]: 225
P8_MAL Rank (before) [11]: 2193
Sequence: RNFVAYLFRARANKGI

P3_MAL Rank (after) [12]: 657
P3_MAL Rank (before) [13]: 2426
Sequence: RGYLRHVRHHLQAKDH

P8_MAL Rank (after) [5]: 578
P8_MAL Rank (before) [6]: 1805
Sequence: AFLCDQLSTLMDPPTF

P8_MAL Rank (after) [5]: 531
P8_MAL Rank (before) [6]: 2114
Sequence: LFFWESLKKLLRSAGR

P3_MAL Rank (after) [12]: 598
P3_MAL Rank (before) [13]: 2037
Sequence: ESGKLASGAGKSGQT

Population [14]: 0.00413%
Sequence: NQWRNALTAAANLIGW

P3_MAL Rank (after) [5]: 485
P3_MAL Rank (before) [6]: 1909
Sequence: DWSLSKLSQHFLKREK

Rank (after) [7]: 388
Rank (before) [8]: 2536
Sequence: TFLGPLLNALVQAGIH

Rank (after) [7]: 110
Rank (before) [8]: 2161
Sequence: LCFCESLKQLLRSDGR

P8_MAL Rank (after) [12]: 669
P8_MAL Rank (before) [13]: 2109
Sequence: LFFWESLKQLLRTVLGKPTM

P3_MAL Rank (after) [10]: 233
P3_MAL Rank (before) [11]: 2212
Sequence: LKWGDPYFWIKLRYTM

P8_MAL Rank (after) [12]: 611
P8_MAL Rank (before) [13]: 1918
Sequence: AFPDTFLIKLPHPTNV

P8_MAL Rank (after) [5]: 530
P8_MAL Rank (before) [6]: 2042
Sequence: ELFLDQVLAVLVKPTM

Rank (after) [7]: 148
Rank (before) [8]: 1160
Sequence: WFYERLFSLILRATKV

P8_MAL Rank (after) [12]: 593
P8_MAL Rank (before) [13]: 2068
Sequence: LFFWDSLKHLLRCDGC

Rank (after) [7]: 392
Rank (before) [8]: 2239
Sequence: RNFGNSCVPCWANRR

P8_MAL Rank (after) [12]: 652
P8_MAL Rank (before) [13]: 2150
Sequence: LFLGESLKLLRRSDGR

P3_MAL Rank (after) [10]: 210
P3_MAL Rank (before) [11]: 2408
Sequence: RGFLSHLRNHLQAKDP

Rank (after) [3]: 417
Rank (before) [4]: 3560
Sequence: KEVEGWRDALRKIANIF

P8_MAL Rank (after) [12]: 650
P8_MAL Rank (before) [13]: 2598
Sequence: TFLGHLYNTLVQACIH

Population [9]: 0.0034%
Sequence: WFYERLASLILRDTKV

P8_MAL Rank (after) [10]: 199
P8_MAL Rank (before) [11]: 1496
Sequence: YFLHFLLCSRPETAYI

P3_MAL Rank (after) [5]: 489
P3_MAL Rank (before) [6]: 3596
Sequence: KELEKYQLAILERDFQ

Population [9]: 0.0034%
Sequence: WFYERLVGLILRDTKV

Population [9]: 0.0034%
Sequence: AFLYTFLINLTHQTNF

Population [9]: 0.0034%
Sequence: WFFERLVSLILRDTKV

Rank (after) [7]: 394
Rank (before) [8]: 1150
Sequence: WFYELLVSLIVRDTKV

P8_MAL Rank (after) [10]: 226
P8_MAL Rank (before) [11]: 2709
Sequence: KLFWEKFKFFRPSLSC

P8_MAL Rank (after) [10]: 258
P8_MAL Rank (before) [11]: 1666
Sequence: AFFWDSCVPCWANRR

P8_MAL Rank (after) [12]: 626
P8_MAL Rank (before) [13]: 2172
Sequence: RDFVAYLCQALANKGI

P8_MAL Rank (after) [1]: 707
P8_MAL Rank (before) [2]: 2749
Sequence: KLIQGWFLYRLMQIEQ

P8_MAL Rank (after) [10]: 273
P8_MAL Rank (before) [11]: 2198
Sequence: RNFVAYLFQALADKGV

Rank (after) [7]: 97
Rank (before) [8]: 1875
Sequence: AFLYTFLKNLTHPTTF

P8_MAL Rank (after) [5]: 492
P8_MAL Rank (before) [6]: 1785
Sequence: AFYWAQLNSVLRDTTM

Population [14]: 0.00827%
Sequence: YAFTSHLHRYLVQRGV

P8_MAL Rank (after) [5]: 508
P8_MAL Rank (before) [6]: 2607
Sequence: TFLGHLLNALVQTDIL

P8_MAL Rank (after) [10]: 207
P8_MAL Rank (before) [11]: 896
Sequence: EKIVEWVWGKVHRTFK

Rank (after) [3]: 189
Rank (before) [4]: 2551
Sequence: RLQKWKEALHQIHSRV

P8_MAL Rank (after) [10]: 201
P8_MAL Rank (before) [11]: 2708
Sequence: KLFWEKFKFFLPTPSR

Rank (after) [7]: 94
Rank (before) [8]: 1870
Sequence: AFLYTFLNNLTHPTKF

Rank (after) [3]: 388
Rank (before) [4]: 2938
Sequence: MRLPAICNVIWCSVA

P3_MAL Rank (after) [5]: 533
P3_MAL Rank (before) [6]: 2303
Sequence: LKGESWRQAREKAGKL

Population [9]: 0.00309%
Sequence: WFYERLVSLILRYTKV

Population [14]: 0.00564%
Sequence: YAFTGHLHHYLVQRGV
